Source: patent US20210134398A1, “Combinatorial Chemistry Computational System and Enhanced Selection Method” (Southern Methodist University, priority 2019, published 2021)

Legend:
[1] = target: T1, Normal Human MDR1 P-glycoprotein (Homo sapiens, UniProt P08183); test: ATPase activity assay (basal and verapamil-stimulated), P-gp in nanodiscs; assay type: biochemical; settings: for Effect on stimulated ATPase / Stimulated ATPase: in the presence of verapamil; for Stimulated ATPase / Basal ATPase: ± standard deviation; for Effect on basal ATPase / Basal ATPase: no added transport substrate
T1 construct: made in house; host or cells: Pichia pastoris (P-gp); E. coli BL21 (DE3) (MSP1E3D1)
Description: To assess whether the observed discrepancies of compounds stimulating basal P-gp ATPase activity but not being transport substrates of the human pump in the cell culture assessments were due to the fact that these biochemical assays used a cysteineless variant of the mouse MDR3 P-glycoprotein, the experiments were repeated using normal human MDR1 P-gp. In order to stabilize the human protein for the activity assays, the protein was assembled into membrane nanodiscs as described herein.
P-glycoprotein Purification. Cysteine-less MDR3 and the human normal MDR1 P-glycoprotein was recombinantly expressed in the yeast Pichia pastoris essentially as in^45, 46 and used for assaying ATP hydrolysis and ATP binding to the protein in the presence of the 29-variants. Purification of the protein was performed as described^49 with small modifications resulting in highly enriched P-gp in mixed micelles containing dodecyl maltoside (DDM) and lysophosphatidyl choline^26.
Nanodisc assembly. Human P-gp in mixed detergent micelles obtained during protein purification, was reconstituted into nanodiscsas described in references^73, 74 with small modifications. […] The detergent was removed with Bio-Beads™ SM-2 Adsorbent Media (BioRad). Ni-NTA Agarose (Qiagen) chromatography was used to purify P-gp reconstituted nanodiscs using 6 bed volumes of start buffer (20% (v/v) glycerol, 50 mM Tris-CL pH 7.5 at 4° C., 50 mM NaCl), and 5 bed volumes of elution buffer (20% (v/v) glycerol, 50 mM Tris-Cl pH 7.5 at 4° C., 50 mM NaCl, 300 mM imidazole).
ATPase Activity Assays. ATP hydrolysis activity was measured using a coupled enzyme assay^72 as modified in reference^26.

[2] = target: T2, P-gp-catalyzed transport of calcein AM in DU145TXR cells (Homo sapiens, UniProt P08183); test: Calcein AM accumulation assay; assay type: cell-based; settings: after 6-hour pre-incubation, compared to parental 29
T2 construct: DU145 human prostate cancer cells^52 as well as the multidrug resistant sub-line, DU145TXR; endogenous in cells; host or cells: DU145TXR (paclitaxel-selected sub-line of human DU145 prostate cancer cells)
Experimental: Accumulation and cellular retention of calcein AM in P-gp overexpressing prostate cancer cells upon incubation with Group 1 SMU-29 variants. Calcein AM accumulation assays have been used by us previously to evaluate P-gp-substrate accumulation in real time in the presence or absence of P-gp inhibitors^28. For these assays, P-gp overexpressing DU145TXR cells were incubated with the respective inhibitors in the presence of the P-gp substrate, calcein AM. Inhibition of P-gp leads to cellular accumulation of calcein AM and to cleavage of its acetoxymethyl ester groups, resulting in the generation of the highly fluorescent compound, calcein. The anionic calcein is not a substrate of P-gp and remains in the cells. In these assays, the relative fluorescence of cellular calcein was measured over time and the results of these assays are shown in FIG. 13A. […]
Calcein AM assay. To assess inhibition of P-gp-catalyzed transport of the P-gp pump substrate, calcein AM, DU145TXR cells were seeded in 96 wells plates and allowed to grow in complete medium until confluency was reached. Medium was removed, and cells were treated […] P-gp inhibitory compounds and 1 μg/mL calcein AM (Life Technologies, OR) and diluted into phenol red free RPMI 1640 media. To study the effect of pre-incubation of compounds, cells were treated with just P-gp inhibitory compounds and incubated at 37° C. for six hours before adding calcein AM. Fluorescence excitation at 485 nm with a 20 nm gate and at emission at 535 nm with a 20 nm gate was measured using a BioTek Cytation 5 imaging multi-mode reader (Bio-Tek, Winooski, Vt.) over 60 minutes in 20 minute intervals. DMSO was used as vehicle. Results were plotted as the mean with standard deviation (SD) of six replicates per concentration and are representative of at least two independent experiments.

[3] = target: T3, cysteineless mouse P-glycoprotein (Mus musculus, UniProt P21447, C1070A/C1121A/C1223A/C133A/C427A/C638A/C669A/C713A/C952A); test: SL-ATP (spin-labeled ATP analog) binding titration by ESR; settings: for Maximum ATP binding: in the presence of the compound, ± standard deviation
T3 construct: made in house; host or cells: Pichia pastoris
Experimental: Effects of 29 variants on binding of an ATP-analog to purified P-glycoprotein. ATP binding in the presence of the 29 variants was assessed in titration assays using a spin-labeled analog of ATP, 2′,3′-SL-ATP (2′,3′-(2,2,5,5,-tetramethyl-3-pyrroline-1-oxyl-3-carboxylic acid ester) ATP; (2′,3′ indicates a rapid equilibrium of the ester bond between the C2′ and C3′ of the ribose moiety))^48-50, and electron spin resonance spectroscopy as described in^26. Due to the lower stability of the human P-glycoprotein in the extended times needed for these experiments, the cysteineless mouse protein was used here. The goal was to assess whether binding of the 29 variants to P-gp affected nucleotide binding to the protein.
ESR Measurements. ESR measurements were as described in^26. The amount of protein-bound spin-labeled (SL) adenine nucleotide was determined as the difference between the known total concentration of SL-ATP (2′,3′-(2,2,5,5,-tetramethyl-3-pyrroline-1-oxyl-3-carboxylic acid ester) —ATP^48) added and the free spin-labeled nucleotide (SL-ANP) observed in the experiment. Hyperbolic curve fitting of the results was performed using GraphPad Prism 7 to determine maximum binding and apparent affinity for the spin-labeled nucleotide. The equation used for the fitting the curves was […], where P1 corresponds to the maximum binding of SL-ANP (moles of SL-ANP bound per mole P-gp), and P2 equals the apparent dissociation constant for SL-ANP. To quantify the amount of free SL-ANP, standard curves were established where the signal amplitude of the high field signal of the ESR spectra of free SL-ANP in the absence of protein was correlated to the concentration of SL-ANP added. All ESR measurements were performed using a Bruker EMX 6/1 ESR spectrophotometer operating in X-band mode and equipped with a high sensitivity cavity. Spectra were acquired at a microwave frequency of 9.33 GHz, microwave power of 12.63 mW, 100 kHz modulation frequency and a resolution of 1024 points. The centerfield of the scan was at 3325 G and an area of 100 G was scanned. The peak to peak modulation amplitude was 1G and the time constant was set to 10.240 ms. The conversion time was 163.84 ms, resulting in a total time sweep of 167.772 s. The signal gain was adjusted for the SL-ATP concentrations in the different experiments.

[4] = target: T2, P-gp-catalyzed transport of calcein AM in DU145TXR cells; test: Calcein AM accumulation assay; assay type: cell-based; settings: without pre-incubation, compared to parental 29; 5 μM stated for Group 2

T2 sequence (P08183 whole entry): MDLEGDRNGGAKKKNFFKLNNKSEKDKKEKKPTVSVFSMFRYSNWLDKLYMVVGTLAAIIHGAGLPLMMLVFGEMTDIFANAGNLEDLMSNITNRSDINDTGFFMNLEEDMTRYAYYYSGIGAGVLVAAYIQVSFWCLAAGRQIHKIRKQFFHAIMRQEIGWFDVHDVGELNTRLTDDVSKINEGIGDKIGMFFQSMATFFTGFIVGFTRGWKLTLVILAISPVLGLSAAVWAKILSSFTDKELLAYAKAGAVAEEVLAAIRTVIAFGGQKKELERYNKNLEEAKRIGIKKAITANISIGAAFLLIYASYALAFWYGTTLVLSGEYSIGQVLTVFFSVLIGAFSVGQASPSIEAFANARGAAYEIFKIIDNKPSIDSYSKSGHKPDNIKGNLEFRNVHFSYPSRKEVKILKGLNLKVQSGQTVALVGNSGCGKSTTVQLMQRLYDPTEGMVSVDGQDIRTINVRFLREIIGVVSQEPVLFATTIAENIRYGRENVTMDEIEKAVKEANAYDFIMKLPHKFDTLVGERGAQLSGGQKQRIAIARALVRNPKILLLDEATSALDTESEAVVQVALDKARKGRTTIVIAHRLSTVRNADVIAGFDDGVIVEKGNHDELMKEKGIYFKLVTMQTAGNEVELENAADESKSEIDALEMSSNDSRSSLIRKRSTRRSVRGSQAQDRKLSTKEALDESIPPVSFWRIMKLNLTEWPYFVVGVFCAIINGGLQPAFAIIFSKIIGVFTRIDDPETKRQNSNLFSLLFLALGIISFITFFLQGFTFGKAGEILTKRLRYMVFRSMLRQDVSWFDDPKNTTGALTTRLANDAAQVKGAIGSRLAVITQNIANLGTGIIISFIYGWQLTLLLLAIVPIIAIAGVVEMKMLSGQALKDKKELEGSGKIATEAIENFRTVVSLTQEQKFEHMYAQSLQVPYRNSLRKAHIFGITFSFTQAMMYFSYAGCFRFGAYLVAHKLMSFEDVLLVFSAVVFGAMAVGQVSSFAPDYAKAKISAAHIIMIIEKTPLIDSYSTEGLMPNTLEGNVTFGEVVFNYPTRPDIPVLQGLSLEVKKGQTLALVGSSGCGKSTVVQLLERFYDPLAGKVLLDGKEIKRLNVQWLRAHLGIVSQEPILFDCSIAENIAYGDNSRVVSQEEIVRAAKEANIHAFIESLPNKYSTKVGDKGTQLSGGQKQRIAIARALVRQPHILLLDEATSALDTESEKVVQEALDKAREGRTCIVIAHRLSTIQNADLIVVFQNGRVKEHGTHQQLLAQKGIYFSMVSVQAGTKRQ
T1 sequence (P08183 whole entry): as above
T3 sequence (P21447 whole entry C133A/C427A/C638A/C669A/C713A/C952A/C1070A/C1121A/C1223A): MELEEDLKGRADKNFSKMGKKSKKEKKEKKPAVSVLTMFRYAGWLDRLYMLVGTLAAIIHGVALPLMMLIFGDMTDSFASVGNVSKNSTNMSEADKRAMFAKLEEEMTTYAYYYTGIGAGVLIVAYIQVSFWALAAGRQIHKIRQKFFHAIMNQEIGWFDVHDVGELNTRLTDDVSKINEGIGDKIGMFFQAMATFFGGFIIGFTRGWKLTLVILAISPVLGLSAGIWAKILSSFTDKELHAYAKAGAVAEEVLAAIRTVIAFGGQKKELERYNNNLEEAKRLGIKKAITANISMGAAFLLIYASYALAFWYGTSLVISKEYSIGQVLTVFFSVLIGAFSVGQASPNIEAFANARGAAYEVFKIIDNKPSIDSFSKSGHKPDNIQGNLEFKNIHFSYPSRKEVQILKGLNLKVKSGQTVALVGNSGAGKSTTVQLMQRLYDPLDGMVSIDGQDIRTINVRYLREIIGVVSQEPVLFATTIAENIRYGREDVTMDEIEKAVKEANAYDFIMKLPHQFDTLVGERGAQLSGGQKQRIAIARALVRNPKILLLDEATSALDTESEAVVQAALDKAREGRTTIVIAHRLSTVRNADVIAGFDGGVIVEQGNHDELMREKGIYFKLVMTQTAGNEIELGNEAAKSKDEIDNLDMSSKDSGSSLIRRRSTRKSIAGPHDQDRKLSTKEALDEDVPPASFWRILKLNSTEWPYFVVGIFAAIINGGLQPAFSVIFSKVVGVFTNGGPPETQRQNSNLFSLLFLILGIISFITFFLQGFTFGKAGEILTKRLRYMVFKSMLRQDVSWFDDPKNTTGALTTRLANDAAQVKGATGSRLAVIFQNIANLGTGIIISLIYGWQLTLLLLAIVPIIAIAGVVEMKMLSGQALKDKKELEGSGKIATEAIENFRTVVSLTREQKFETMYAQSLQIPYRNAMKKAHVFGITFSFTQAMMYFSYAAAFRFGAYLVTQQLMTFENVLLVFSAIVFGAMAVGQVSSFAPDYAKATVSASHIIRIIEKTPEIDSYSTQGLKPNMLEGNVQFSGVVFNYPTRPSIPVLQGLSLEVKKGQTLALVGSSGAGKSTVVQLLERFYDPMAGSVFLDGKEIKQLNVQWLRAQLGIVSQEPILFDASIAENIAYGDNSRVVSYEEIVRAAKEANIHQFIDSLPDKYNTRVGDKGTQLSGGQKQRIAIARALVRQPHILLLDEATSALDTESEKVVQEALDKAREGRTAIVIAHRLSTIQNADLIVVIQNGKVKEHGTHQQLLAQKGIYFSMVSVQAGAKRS

| Molecule | Effect on stimulated ATPase [1] | Stimulated ATPase [1] | Effect on basal ATPase [1] | Basal ATPase [1] | Calcein accumulation in DU145TXR (in words) [2] | Effect on SL-ANP binding [3] | Maximum ATP binding [3] | Calcein accumulation in DU145TXR (in words) [4] | Maximum ATP binding ([3]; listed as 238) | Maximum ATP binding ([3]; listed as SMU29-238) |
| --- | --- | --- | --- | --- | --- | --- | --- | --- | --- | --- |
| Cc1cc(C)c(-c2cc(NC(=O)CSc3cccc(NC(=O)c4cncc(Br)c4)c3)n(-c3ccccc3)n2)cc1C [29-551, 5-bromo-N-(3-((2-oxo-2-((1-phenyl-3-(2,4,5-trimethylphenyl)-1H-pyrazol-5-yl)amino)ethyl)thio)phenyl)nicotinamide] | inhibitor | 27 ± 1 % of DMSO | inhibitor | 72 ± 9 % of DMSO | equivalent to 29 in efficacy | no | 1.7 ± 0.1 mol SL-ANP bound/mol P-gp | marginally higher calcein accumulation than parental compound 29 |  |  |
| Cc1cc(C)c(-c2cc(NC(=O)CSCC(=O)NC(c3ccccc3)c3ccccc3)n(-c3ccccc3)n2)cc1C [29-280, N-(diphenylmethyl)-2-[({[1-phenyl-3-(2,4,5-trimethylphenyl)-1H-pyrazol-5-yl]carbamoyl)methyl}sulfanyl]acetamide] | inhibitor | 54 ± 7 % of DMSO | inhibitor | 76 ± 8 % of DMSO | comparable to 29 | marginally | 1.6 ± 0.1 mol SL-ANP bound/mol P-gp | less calcein accumulation than the parental compound |  |  |
| 2-{[2-(9H-flouoren-2-yl)-2-oxoethyl]}-N-[1-phenyl-3-(2,4,5-trimethylphenyl0-1H-pyrazol-5-yl]acetamide [29-216] | inhibitor | 64 ± 6 % of DMSO | inhibitor | 69 ± 8 % of DMSO |  | no | 1.7 ± 0.1 mol SL-ANP bound/mol P-gp |  |  |  |
| Cc1cc(C)c(-c2cc(NC(=O)CSc3nnc(C4CC4)[nH]3)n(-c3ccccc3)n2)cc1C [compound 29, reference compound] | inhibitor | 62 ± 3 % of DMSO | none | 88 ± 9 % of DMSO |  |  |  |  |  |  |
| Cc1cc(C)c(-c2cc(NC(=O)CSCC(=O)NCc3ccc(F)cc3)n(-c3ccccc3)n2)cc1C [29-286] | inhibitor | 59 ± 4 % of DMSO | none | 95 ± 3 % of DMSO | comparable to 29 | no | 1.9 ± 0.1 mol SL-ANP bound/mol P-gp | comparable to 29 |  |  |
| COc1cc(NC(=O)CSCC(=O)Nc2cc(-c3cc(C)c(C)cc3C)nn2-c2ccccc2)cc(OC)c1OC [29-238, N-[1-phenyl-3-(2,4,5-trimethylphenyl)-1H-pyrazol-5-yl]-2-({[(3,4,5-trimethoxyphenyl)carbamoyl]methyl}sulfanyl)acetamide] | inhibitor | 61 ± 7 % of DMSO | none | 89 ± 7 % of DMSO | remained strongest | yes |  | considerably increased calcein accumulation | about 1 mol SL-ANP bound/mol P-gp | 1.2 ± 0.1 mol SL-ANP bound/mol P-gp |
| Cc1cc(C)c(-c2cc(NC(=O)CSCC(=O)Nc3ccc4ncsc4c3)n(-c3ccccc3)n2)cc1C [29-255, 2-({[(1,3-benzothiazol-6-yl)carbamoyl]methyl}sulfanyl)-N-[1-phenyl-3-(2,4,5 trimethylphenyl)-1H-pyrazol-5-yl]acetamide] | inhibitor | 59 ± 6 % of DMSO | none | 84 ± 9 % of DMSO | remained strongest | no | 1.9 ± 0.1 mol SL-ANP bound/mol P-gp | considerably increased calcein accumulation |  |  |
| Cc1cc(C)c(-c2cc(NC(=O)CSCC(=O)Nc3ccc4ccccc4c3)n(-c3ccccc3)n2)cc1C [29-231, 2-({[(naphthalen-2-yl)carbamoyl]methyl}sulfanyl)-N-[1-phenyl-3-(2,4,5-trimethylphenyl)-1H-pyrazol-5-yl]acetamide] | inhibitor | 40 ± 3 % of DMSO | inhibitor | 70 ± 4 % of DMSO |  | marginally | 1.8 ± 0.1 mol SL-ANP bound/mol P-gp |  |  |  |
| Cc1cc(C)c(-c2cc(NC(=O)CSCC(=O)N3c4ccccc4CCc4ccccc43)n(-c3ccccc3)n2)cc1C [29-227, 2-[(2-{2-azatricyclo[9.4.0.0]pentadeca-1(11),3(8},4,6,12,14-hexaen-2-yl)-2-oxoethyl)sulfanyl]-N-[1-phenyl-3-(2,4,5-trimethylphenyl)-1H-pyrazol-5-yl]acetamide] | inhibitor | 62 ± 5 % of DMSO | none | 83 ± 7 % of DMSO |  | no | 1.8 ± 0.1 mol SL-ANP bound/mol P-gp |  |  |  |
